The term IC50 denotes the midpoint of a concentration-inhibition curve. One may read the viability as the share of living cells, or the viability signal relative to a control.

This note sets out measurements from publication PMC11576109, “Synthesis and biological evaluation of diclofenac acid derivatives as potential lipoxygenase and α-glucosidase inhibitors” (Royal Society Open Science, 2024).

Each structure is given as a SMILES string. “Also recorded” adds a separate entry of the source. Bounds are passed on as bounds.

Data set [1] addresses T1, soybean 15-LOX (Glycine max, UniProt P08170).
T1 sequence (P08170 1-839): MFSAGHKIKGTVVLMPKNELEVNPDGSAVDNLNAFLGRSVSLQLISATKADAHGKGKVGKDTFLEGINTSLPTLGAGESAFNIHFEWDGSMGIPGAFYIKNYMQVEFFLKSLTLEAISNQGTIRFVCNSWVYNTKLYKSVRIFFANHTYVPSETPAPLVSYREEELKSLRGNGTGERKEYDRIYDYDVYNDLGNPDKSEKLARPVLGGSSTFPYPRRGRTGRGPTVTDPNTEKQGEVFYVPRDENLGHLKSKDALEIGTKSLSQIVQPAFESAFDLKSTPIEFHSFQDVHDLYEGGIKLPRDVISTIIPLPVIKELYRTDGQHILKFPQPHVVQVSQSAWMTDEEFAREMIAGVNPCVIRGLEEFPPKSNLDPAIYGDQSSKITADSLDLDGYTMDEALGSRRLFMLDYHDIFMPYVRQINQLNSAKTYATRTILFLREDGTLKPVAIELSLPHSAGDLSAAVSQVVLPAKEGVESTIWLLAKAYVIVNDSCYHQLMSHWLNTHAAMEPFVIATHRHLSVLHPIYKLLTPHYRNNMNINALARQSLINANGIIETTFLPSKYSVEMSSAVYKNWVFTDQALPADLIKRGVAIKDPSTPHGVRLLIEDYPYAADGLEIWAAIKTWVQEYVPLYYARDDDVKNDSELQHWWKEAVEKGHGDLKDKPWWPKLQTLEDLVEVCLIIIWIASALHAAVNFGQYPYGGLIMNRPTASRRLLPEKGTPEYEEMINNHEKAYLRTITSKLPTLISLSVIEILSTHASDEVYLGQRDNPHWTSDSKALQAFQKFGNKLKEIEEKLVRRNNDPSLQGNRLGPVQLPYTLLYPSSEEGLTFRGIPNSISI
Nature of the data set: In vitro 15-lipoxygenase inhibition assay. The format is biochemical. The settings on record: read-out: IC50 (µM) ± SEM 15-LOX. The source says:
(§1) Assay protocols for bioactivity were placed in electronic supplementary material.

For data set [2], the target named is α-glucosidase (Saccharomyces cerevisiae, UniProt P53341). Nature of the data set: In vitro α-glucosidase inhibition assay. Format: biochemical. The settings on record: NA = not active; for IC50: read-out: IC50 (µM) ± SEM α-glucosidase.
Chain of α-glucosidase (P53341 whole entry): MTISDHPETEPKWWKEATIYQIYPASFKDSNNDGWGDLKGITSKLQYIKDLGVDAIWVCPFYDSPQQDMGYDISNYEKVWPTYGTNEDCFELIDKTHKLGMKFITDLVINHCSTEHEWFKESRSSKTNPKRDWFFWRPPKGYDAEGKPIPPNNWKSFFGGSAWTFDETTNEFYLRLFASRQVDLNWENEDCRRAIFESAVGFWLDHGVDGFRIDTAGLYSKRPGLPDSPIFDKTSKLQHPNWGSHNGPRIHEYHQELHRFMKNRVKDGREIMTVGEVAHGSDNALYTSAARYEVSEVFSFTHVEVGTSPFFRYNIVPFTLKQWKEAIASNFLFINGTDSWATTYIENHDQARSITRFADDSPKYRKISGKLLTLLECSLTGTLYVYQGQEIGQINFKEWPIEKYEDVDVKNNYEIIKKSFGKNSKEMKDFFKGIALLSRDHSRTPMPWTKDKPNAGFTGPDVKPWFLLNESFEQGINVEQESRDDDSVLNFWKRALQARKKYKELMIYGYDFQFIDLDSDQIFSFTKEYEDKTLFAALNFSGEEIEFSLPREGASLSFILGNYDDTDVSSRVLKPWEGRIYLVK
Text: as §1
Synthesized diclofenac acid derivatives were screened for α-glucosidase inhibitory activity (table 2).

Data set [3] deals with mononuclear cells (MNCs). Put plainly: Cellular viability assay on mononuclear cells. Format: cell-based, human.
Text: (§2) All of the chemicals and solvents were obtained from Sigma-Aldrich and used directly without any purification. Mononuclear cells were isolated from the blood samples taken from healthy volunteers. Diclofenac acid was purchased from Alfa Aesar. Bruker Avance 400 and 500 MHz spectrometers were used to […] the ^1H and ^13C nuclear magnetic resonance (NMR) spectra, were captured with tetramethylsilane (TMS) serving as an internal reference. On a Finnegan MAT-311A mass spectrometer, high-resolution mass spectrometry using electron ionization (HRMS (EI)) data were recorded. Using the Stuart melting point apparatus, melting points in open capillaries were determined (SMP10). All reactions were monitored by using thin layer chromatography (TLC) plates that were pre-coated with silica gel 60F254.
as §1
(§3) Using mononuclear cells (MNCs) at a concentration of 0.25 mM as shown in the table 2, the per cent viability was calculated.

A short description of data set [4]: Cellular viability assay on mononuclear cells. Format: cell-based, human. The settings on record: human, mononuclear cells (MNCs) isolated from blood, read-out: cell viability (%) at 0.25 mM.
Text: as §2, §1, §3

For the molecule `O=C(Cc1ccccc1Nc1c(Cl)cccc1Cl)NNC(=S)Nc1ccccc1F` [4a], the IC50 is 163 ± 1 µM in data set [1] and 53 ± 1 µM in data set [2]. The “cell viability (%) at 0.25 mM” value in data set [3] stood at 79 ± 2%.

As to `O=C(Cc1ccccc1Nc1c(Cl)cccc1Cl)NNC(=S)Nc1cccc(F)c1` [4b], the IC50 in data set [1] was above 250 µM; in data set [2] it was 5 ± 1 µM. The “cell viability (%) at 0.25 mM” value in data set [3] worked out at 82 ± 1%.

As for `O=C(Cc1ccccc1Nc1c(Cl)cccc1Cl)NNC(=S)Nc1ccc(F)cc1` [4c], the IC50 in data set [1] is above 250 µM; in data set [2] it was 53 ± 1 µM. The “cell viability (%) at 0.25 mM” value in data set [3] worked out at 62 ± 2%.

As for `O=C(Cc1ccccc1Nc1c(Cl)cccc1Cl)NNC(=S)Nc1cccc(Cl)c1Cl` [4d], the 50% inhibitory concentration (IC50) in data set [1] was found to be 164 ± 1 µM; in data set [2], 28 ± 1 µM. In data set [3], the “cell viability (%) at 0.25 mM” value came out at 73 ± 1%.

Turning to `O=C(Cc1ccccc1Nc1c(Cl)cccc1Cl)NNC(=S)Nc1ccc(Cl)cc1Cl` [4e], the IC50 in data set [1] was determined as 177 ± 1 µM; in data set [2], 87 ± 1 µM. Further, in data set [3], the “cell viability (%) at 0.25 mM” value is given as 64 ± 2%.

On to `O=C(Cc1ccccc1Nc1c(Cl)cccc1Cl)NNC(=S)Nc1ccc(Cl)c(Cl)c1` [4f], for which the IC50 was above 250 µM in data set [1] and 93 ± 1 µM in data set [2]. In data set [3], the “cell viability (%) at 0.25 mM” value amounted to 64 ± 2%.

As to `Fc1ccccc1-n1c(S)nnc1Cc1ccccc1Nc1c(Cl)cccc1Cl` [5a], the IC50 in data set [1] amounted to 14 ± 1 µM; in data set [2], 202 ± 1 µM. Moreover, the “cell viability (%) at 0.25 mM” value in data set [3] was found to be 97 ± 2%.

Consider `Fc1cccc(-n2c(S)nnc2Cc2ccccc2Nc2c(Cl)cccc2Cl)c1` [5b], for which the values for the IC50 in data set [1] and in data set [2] were 61 ± 1 µM and 308 ± 1 µM, respectively. In addition, the “cell viability (%) at 0.25 mM” value in data set [3] was found to be 96 ± 2%.

Regarding `Fc1ccc(-n2c(S)nnc2Cc2ccccc2Nc2c(Cl)cccc2Cl)cc1` [5c], the IC50 in data set [1] was above 250 µM; in data set [2], 170 ± 1 µM. In addition, in data set [3], the “cell viability (%) at 0.25 mM” value was 96 ± 2%.

With `Sc1nnc(Cc2ccccc2Nc2c(Cl)cccc2Cl)n1-c1cccc(Cl)c1Cl` [5d], the IC50 in data set [1] came out at 141 ± 1 µM; in data set [2] it was 83 ± 1 µM. In data set [3], the “cell viability (%) at 0.25 mM” value was 96 ± 2%.

With `Sc1nnc(Cc2ccccc2Nc2c(Cl)cccc2Cl)n1-c1ccc(Cl)cc1Cl` [5e], the values for the IC50 in data set [1] and in data set [2] were 93 ± 1 µM and 92 ± 1 µM, respectively. The “cell viability (%) at 0.25 mM” value in data set [3] is 94 ± 1%.

On to `Sc1nnc(Cc2ccccc2Nc2c(Cl)cccc2Cl)n1-c1ccc(Cl)c(Cl)c1` [5f], for which the IC50 is 75 ± 1 µM in data set [1] and 247 ± 1 µM in data set [2]. Also, in data set [3], the “cell viability (%) at 0.25 mM” value is 97 ± 2%.

As to `CCSc1nnc(Cc2ccccc2Nc2c(Cl)cccc2Cl)n1-c1ccc(F)cc1` [6a], the IC50 in data set [1] is above 250 µM; in data set [2] it was 116 ± 1 µM. Besides, the “cell viability (%) at 0.25 mM” value in data set [3] stood at 88 ± 2%.

Turning to `CCSc1nnc(Cc2ccccc2Nc2c(Cl)cccc2Cl)n1-c1ccc(Cl)c(Cl)c1` [6b], the IC50 was above 250 µM in data set [1] and 132 ± 1 µM in data set [2]. In addition, the “cell viability (%) at 0.25 mM” value in data set [3] is 98 ± 1%.

In the case of `CCCSc1nnc(Cc2ccccc2Nc2c(Cl)cccc2Cl)n1-c1ccc(F)cc1` [6c], the results for the IC50 in data set [1] and in data set [2] were above 250 µM and 92 ± 1 µM, respectively. Besides, the “cell viability (%) at 0.25 mM” value in data set [3] was found to be 85 ± 1%.

In the case of `CCCSc1nnc(Cc2ccccc2Nc2c(Cl)cccc2Cl)n1-c1ccc(Cl)c(Cl)c1` [6d], the IC50 in data set [1] is above 250 µM; in data set [2] it was 90 ± 1 µM. For the same molecule, the “cell viability (%) at 0.25 mM” value in data set [3] was determined as 78 ± 2%.

Regarding `Fc1ccccc1Nc1nnc(Cc2ccccc2Nc2c(Cl)cccc2Cl)o1` [7a], the values for the half-inhibitory concentration (IC50) in data set [1] and in data set [2] were 98 ± 1 µM and 7 ± 1 µM, respectively. Moreover, the “cell viability (%) at 0.25 mM” value in data set [3] was found to be 76 ± 1%.

With `Fc1cccc(Nc2nnc(Cc3ccccc3Nc3c(Cl)cccc3Cl)o2)c1` [7b], the IC50 came to 87 ± 1 µM in data set [1] and 3 ± 1 µM in data set [2]. Further, the “cell viability (%) at 0.25 mM” value in data set [3] was 72 ± 1%.

Consider `Fc1ccc(Nc2nnc(Cc3ccccc3Nc3c(Cl)cccc3Cl)o2)cc1` [7c], for which the IC50 stood at 67 ± 1 µM in data set [1] and 85 ± 1 µM in data set [2]. Besides, the “cell viability (%) at 0.25 mM” value in data set [3] is on record as 63 ± 1%.

`Clc1cccc(Nc2nnc(Cc3ccccc3Nc3c(Cl)cccc3Cl)o2)c1Cl` [7d]: the half-inhibitory concentration (IC50) in data set [1] was 165 ± 1 µM; in data set [2] it was 79 ± 1 µM. Further, in data set [3], the “cell viability (%) at 0.25 mM” value is given as 62 ± 2%.

With `Clc1ccc(Nc2nnc(Cc3ccccc3Nc3c(Cl)cccc3Cl)o2)c(Cl)c1` [7e], the IC50 amounted to 172 ± 1 µM in data set [1] and 61 ± 1 µM in data set [2]. In data set [3], the “cell viability (%) at 0.25 mM” value was 43 ± 1%.

Take `Clc1ccc(Nc2nnc(Cc3ccccc3Nc3c(Cl)cccc3Cl)o2)cc1Cl` [7f]: the half-inhibitory concentration (IC50) worked out at 143 ± 1 µM in data set [1] and 91 ± 1 µM in data set [2]. Moreover, the “cell viability (%) at 0.25 mM” value in data set [3] was determined as 59 ± 2%.

For `Fc1ccccc1Nc1nnc(Cc2ccccc2Nc2c(Cl)cccc2Cl)s1` [8a], the values for the IC50 in data set [1] and in data set [2] were above 250 µM and 99 ± 1 µM, respectively. Moreover, the “cell viability (%) at 0.25 mM” value in data set [3] was 86 ± 2%.

Turning to `Fc1cccc(Nc2nnc(Cc3ccccc3Nc3c(Cl)cccc3Cl)s2)c1` [8b], the half-maximal inhibitory concentration (IC50) turned out to be 97 ± 1 µM in data set [1] and 11 ± 1 µM in data set [2]. The “cell viability (%) at 0.25 mM” value in data set [3] stood at 92 ± 2%.

For `Fc1ccc(Nc2nnc(Cc3ccccc3Nc3c(Cl)cccc3Cl)s2)cc1` [8c], the IC50 in data set [1] is 173 ± 1 µM; in data set [2] it was 55 ± 1 µM. Moreover, the “cell viability (%) at 0.25 mM” value in data set [3] came to 76 ± 1%.

Turning to `Clc1cccc(Nc2nnc(Cc3ccccc3Nc3c(Cl)cccc3Cl)s2)c1Cl` [8d], the IC50 in data set [1] worked out at 132 ± 1 µM; in data set [2], 46 ± 1 µM. Further, the “cell viability (%) at 0.25 mM” value in data set [3] was 98 ± 2%.

In the case of `Clc1ccc(Nc2nnc(Cc3ccccc3Nc3c(Cl)cccc3Cl)s2)c(Cl)c1` [8e], the IC50 in data set [1] is above 250 µM. Moreover, in data set [2], the “IC50 (µM) ± SEM α-glucosidase” value is “inactive; also recorded: non-active”. The “cell viability (%) at 0.25 mM” value in data set [3] turned out to be 75 ± 1%.

As for `Clc1ccc(Nc2nnc(Cc3ccccc3Nc3c(Cl)cccc3Cl)s2)cc1Cl` [8f], the results for the IC50 in data set [1] and in data set [2] were 156 ± 1 µM and 125 ± 1 µM, respectively. For the same molecule, the “cell viability (%) at 0.25 mM” value in data set [3] was 95 ± 2%.

For the molecule `O=c1cc(-c2ccccc2)oc2cc(O)c(O)c(O)c12` [baicalein, reference compound], the IC50 in data set [1] was found to be 22 ± 1 µM.

`COc1cc(/C=C/C(=O)CC(=O)/C=C/c2ccc(O)c(OC)c2)ccc1O` [curcumin, reference compound]: in data set [4], the viability at 0.25 mM is 74 ± 2%.

For the molecule `O=P1(N(CCCl)CCCl)NCCCO1` (stereo not shown) [cyclophosphamide, reference compound], the viability at 0.25 mM in data set [4] was 56 ± 2%.

Take `O=c1c(O)c(-c2ccc(O)c(O)c2)oc2cc(O)cc(O)c12` [quercetin, reference compound]: the viability at 0.25 mM in data set [4] worked out at 92 ± 1%.
